Patent publication US5798391A, “Injectable solution of benzalkonium fluoride” (Aromafarm Limited, priority 1994, dated 1998)

Key:
HIV-1 virus (LAI strain) = assay: residual infectiousness of treated HIV-1 on activated human lymphocytes, antigen P25 ELISA; assay type: cell-based, HIV-1 (LAI strain); conditions: 1/2 dilutions, REV7 (30 min) and REV8 (60 min) (FIG. 4)
mice = assay: LD 50, unique administration, Behrens and Karber method, mice; assay type: in vivo, albino mouse
Procedure: The high toxicity of benzalkonium fluoride in unique administration in mice and guinea pigs was determined by the Behrens and Karber method, by intracardiac, intravenous and intraperitoneal injection. The animals used were young adult albino mice and albino guinea pigs. Ten animals were used for each dose administered, five males and five females. The benzalkonium fluoride was used in a 3 g/l isotonic solution of sterile apyrogenic sodium chloride. We observed the animals for 7 days after unique administration carried out using a sterile needle adapted to a syringe graduated in 1/10 ml to allow the treatment of each animal with an exact dose. The animals were weighed each day during the observation period.
The LD 50 (lethal dose 50) was determined.

Carre's disease = assay: treatment of dogs suffering from Carre's disease; assay type: in vivo, dog
Procedure: The invention was used to treat dogs suffering from Carre's disease. This disease, considered fatal and without treatment, is due to an ultravirus.
Twelve dogs were treated with one 10 ml ampoule of benzalkonium fluoride solution at 2.1 g/l for 20 kg of animal. The injection was given once per day for three days. The dogs also had associated treatment (vitamins, antibiotics, vaccines, etc.).

[1] = system: mycobacterium tuberculosis (wild strain); assay: activity in vitro on mycobacterium tuberculosis, B[…] medium surface impregnation method; assay type: cell-based; set-up: key to culture of Bacterium Tuberculosis: (+++): positive culture; (-): negative culture
Procedure: We determined the activity in vitro of benzalkonium fluoride on the mycobacterium tuberculosis (wild strain).
This experiment was carried out with the B[…] medium surface impregnation method. The quantity of active substance absorbed by the medium is expressed in cm^2.
The volume of the appropriate dilution of benzalkonium fluoride was 0.25 ml per tube of medium in order to arrive at concentrations of benzalkonium fluoride of 0.1, 0.2 and 0.3% per cm^2 surface of B[…] medium.
A control tube, without benzalkonium fluoride, was used for each of the series.
Three series of tests were carried out with dilutions of 0.1, 0.01 and 0.001 of the mother solution of the Bacterium Tuberculosis strain prepared at 1 mg/ml.
All the tests were carried out in double.

rabbit blood = assay: in vitro haemolysis of total blood, rabbit
guinea pig blood = assay: in vitro haemolysis of total blood, guinea pig
dogs (beagles) = assay: local and general tolerance of intravenous administration in dogs, 28 days; conditions: injected intravenously

SMILES: CCCCCCCCCCCCCC[N+](C)(C)Cc1ccccc1.[F-] [benzalkonium fluoride, tetradecyl-dimethyl-benzyl-ammonium fluoride]
- antigen P25 in lymphocyte supernatants (HIV-1 virus (LAI strain)): negative
- LD 50 (mice; female mouse, intraperitoneal): 34.60 mg/mL
- LD 50 (mice; female mouse, intravenous): 36.60 mg/mL
- acute toxicity, overall (mice; intravenous, intraperitoneal or intracardiac injection, mice and guinea pigs): sufficiently low toxicity
- LD 50 (mice; male mouse, intraperitoneal): 33.10 mg/mL
- LD 50 (mice; male mouse, intravenous): 33.24 mg/mL
- dogs with nervous symptoms (Carre's disease; five other dogs, generalised trembling): could not be treated
- dogs saved (Carre's disease; of twelve dogs, 10 ml of 2.1 g/l per 20 kg once per day, three days, associated treatment): effective for seven dogs who were saved
- total recovery (Carre's disease; seven dogs saved): 18 days
- inhibition of the culture ([1]; 0.1, 0.2 and 0.3% per cm^2, dilutions 0.1, 0.01 and 0.001, four weeks at 37° C.): an inhibition of the culture
- culture of Bacterium Tuberculosis ([1]; BKF 0.1%/cm^2, BK dilution 0.001, in double): (-)
- culture of Bacterium Tuberculosis ([1]; BKF 0.1%/cm^2, BK dilution 0.01, in double): (-)
- culture of Bacterium Tuberculosis ([1]; BKF 0.1%/cm^2, BK dilution 0.1, in double): (-)
- culture of Bacterium Tuberculosis ([1]; BKF 0.2%/cm^2, BK dilution 0.001, in double): (-)
- culture of Bacterium Tuberculosis ([1]; BKF 0.2%/cm^2, BK dilution 0.01, in double): (-)
- culture of Bacterium Tuberculosis ([1]; BKF 0.2%/cm^2, BK dilution 0.1, in double): (-)
- culture of Bacterium Tuberculosis ([1]; BKF 0.3%/cm^2, BK dilution 0.001, in double): (-)
- culture of Bacterium Tuberculosis ([1]; BKF 0.3%/cm^2, BK dilution 0.01, in double): (-)
- culture of Bacterium Tuberculosis ([1]; BKF 0.3%/cm^2, BK dilution 0.1, in double): (-)
- haemolysis (degree of red colouring) (rabbit blood; 37.5 ppm or mg/l): 0
- haemolysis (degree of red colouring) (rabbit blood; 75 ppm or mg/l): +
- haemolysis (degree of red colouring) (rabbit blood; 150 ppm or mg/l): +++
- haemolysis (degree of red colouring) (guinea pig blood; 37.5 ppm or mg/l): 0
- haemolysis (degree of red colouring) (guinea pig blood; 75 ppm or mg/l): +
- haemolysis (degree of red colouring) (guinea pig blood; 150 ppm or mg/l): ++++
- toxic effect, overall (dogs (beagles)): no remarkable toxic effect
